Test results reported in article PMC6396489 (Cell Communication and Signaling : CCS, 2019).
Where two headings read alike, the source gives them in different places.

Legend:
Shp1 [1] = target: T1, Shp1 (Homo sapiens, UniProt P29350); experiment: SPR competition assay with free GroPIns4P; conditions: Shp1 1.2 μM; read-out: EC50 of competition with Shp1 binding to GroPIns4P-Bio chip
T1 construct: the C-terminal truncated form of human Shp1 cDNA (His-Shp1; amino acids 1–529); made in house; host or cells: E. coli BL21(DE3)
T1 sequence (P29350 1-529 isoform P29350-3): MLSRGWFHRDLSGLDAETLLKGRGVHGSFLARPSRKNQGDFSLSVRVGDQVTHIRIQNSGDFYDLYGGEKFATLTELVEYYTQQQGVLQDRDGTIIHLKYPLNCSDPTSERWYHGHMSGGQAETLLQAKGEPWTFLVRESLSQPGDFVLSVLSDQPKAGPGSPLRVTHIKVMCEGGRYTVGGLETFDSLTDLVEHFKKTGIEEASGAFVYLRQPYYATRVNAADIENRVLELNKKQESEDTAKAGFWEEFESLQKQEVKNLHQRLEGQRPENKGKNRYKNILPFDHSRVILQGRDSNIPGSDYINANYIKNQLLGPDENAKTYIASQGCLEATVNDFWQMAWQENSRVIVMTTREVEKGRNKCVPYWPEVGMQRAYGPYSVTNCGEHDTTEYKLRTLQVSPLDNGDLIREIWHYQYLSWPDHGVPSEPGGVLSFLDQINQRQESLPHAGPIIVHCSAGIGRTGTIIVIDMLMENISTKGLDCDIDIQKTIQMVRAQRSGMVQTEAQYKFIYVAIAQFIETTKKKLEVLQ
Method: For the competition experiments, SPR assays were performed at a fixed concentration of Shp1 (1.2 μM) in the presence of increasing concentrations of GroPIns4P (0.0 to 5.0 μM). Both Shp1 and GroPIns4P were dissolved in HBS-EP buffer and incubated for 10 min before injection onto the SA sensor chip. The flow was fixed to 20 μL/min, and the time of injection was 3 min. A solution of 2.0 mM glycine/HCl, pH 3.0, was used in the regeneration step to remove the analyte bond before reusing the sensor chip.

Shp1 [2] = target: T1, Shp1; experiment: Isothermal titration calorimetry, Shp1 WT; assay type: binding
Method: ITC measurements were performed by using a Nano-ITC III (TA instruments, New Castle, DE, USA) with a reaction cell volume of 1 ml kept at 25 °C. A protein solution of 10 μM was titrated into the calorimetric cell with a solution of 50–100 μM of the ligand GroPIns4P (Ins4P) in the syringe. A sequence of 16 injections of 15 μL volume was programmed with a stirring speed of 250 rpm at 500 s intervals. Protein samples were prepared with protein solutions at 25 °C in 20 mM Tris buffer pH 7.4 with 50 mM NaCl and 1 mM TCEP. To minimise the differences in buffer composition and pH between cell and syringe, both ligand and protein solutions were prepared with the same batch of buffer. The heat of dilution of the GroPIns4P into the buffer solution was measured in a separate experiment and appropriate corrections were made. The heat evolved after each ligand injection was obtained from the integral of the calorimetric signal. Raw data were integrated, corrected for non-specific heats and normalized for concentration. The equilibrium dissociation constant (KD), binding enthalpy (ΔbH) and binding stoichiometry (n) were obtained by nonlinear regression of the experimental data using a model of independent binding sites, by means of the NanoAnalyze software. Experiments were performed in duplicate.

Shp1 [3] = target: T1, Shp1; experiment: In-vitro dephosphorylation of Src by recombinant Shp1; assay type: biochemical; conditions: 50 μM, 10 min at 37 °C
Method: The immunoprecipitates were washed three times with lysis buffer, three times with lysis buffer without phosphatase inhibitors, and twice with phosphatase buffer (100 mM Na-Hepes, pH 7.4, 150 mM NaCl, 1 mM EDTA, and 10 mM DTT). The immunoprecipitates were then split equally into different tubes for treatment with Shp1 or buffer only. The treatment consisted of the addition of 2 μg of Shp1 to the immunoprecipitates in the absence or presence of 50 μM GroPIns4P and an incubation at 37 °C for different times. The reactions were terminated by the addition of concentrated SDS-sample buffer.

Shp1 and Src [4] = tested on: T2, Shp1 and Src; experiment: Co-immunoprecipitation of Src with Shp1 in NIH3T3 cells; assay type: cell-based; conditions: 50 μM for 5 min
T2 construct: expressed in transfected cells; host or cells: NIH3T3
Method: NIH3T3 cells were washed with ice-cold PBS and lysed on ice in buffer containing 20 mM Tris-HCl, pH 8.0, 150 mM NaCl, 1% Triton-X100, 5 mM Na3VO4, 30 mM β-glycerophosphate and 10 mM NaF supplemented with the protease inhibitor cocktail and processed for SDS-PAGE. Westen blotting was performed with the relevant antibodies. For immunoprecipitation experiments, 2 μg of an anti-Shp1 antibody or 5 μg of an anti-Src antibody were added to 1 mg of NIH3T3 cell lysates at 4 °C and incubated overnight. The samples were then incubated with A or G protein agarose beads for 1 h at 4 °C. Western blotting was performed from the washed and denatured complexes.

Shp1 and Src [5] = tested on: T2, Shp1 and Src; experiment: Acceptor photobleaching FRET of Shp1-CFP and Src-YFP; assay type: cell-based; conditions: 50 μM for 5 min
Method: Acceptor photobleaching (apFRET) experiments were carried out with Leica SP5 confocal microscope, as follows: for CFP (donor) fluorescence detection, excitation at 458 nm and fluorescence detected at 470–490 nm. For YFP bleaching, a 514 nm argon laser was used. apFRET was measured by increase in CFP fluorescence intensity before (IDA) and after (ID) YFP photobleaching. To ensure reproducibility and reliability of CFP fluorescence measurements in the absence of acceptor (ID), YFP was photobleached to 10% of its initial fluorescence. The FRET efficiency was calculated as E = (ID − IDA)/ ID .

NIH3T3 cells = experiment: Wound-healing assay; assay type: cell-based
Method: To perform the wound-healing assay, NIH3T3 cells were seeded in 6-well tissue culture plates to a final density of 3 × 10^5 cells/well and maintained at 37 °C and 5% CO2 for 24 h until confluence before being starved overnight in DMEM containing 1% bovine serum. The cell monolayer was wounded by scratching with a 10 μL standard sterile pipette tip. The scratched monolayer was rinsed twice with DMEM containing 1% bovine serum to remove cell debris and incubated with or without 50 μM GroPIns4P. […] In detail, the input image was processed by applying a Sobel edge detector [26], obtaining a gradient image. A threshold process was then performed on the gradient image to obtain the foreground corresponding to the wound area. Particularly, all of the pixels of the gradient image with values less than the threshold θ were assumed to be pixels of the foreground (experimentally, θ is set to 4). Finally, procedures based on morphological operations were used to remove small regions and to fill holes of the wound area to complete detection and analysis.

EC50 (Shp1 [1]): ~0.8 µM | Kd (Shp1 [2]; ITC, 25 °C, Shp1 WT, read-out: KD): 0.3 µM | Kd (Shp1 [2]; summary over ITC, Trp fluorescence and SPR competition, read-out: affinity of the binding): 0.3 to 0.8 µM
Compound: O=P(O)(O)OC1C(O)C(O)C(OP(=O)(O)OCC(O)CO)C(O)C1O (stereo not drawn) [GroPIns4P, glycerophosphoinositol 4-phosphate]
effect on Shp1 phosphatase activity against immunopurified Src (pTyr530) (Shp1 [3]): stimulated Shp1 activity and induced Src dephosphorylation | increase in the interaction between Shp1-C455S and Src (Shp1 and Src [4]; NIH3T3 over-expressing Shp1-C455S): 2.2 fold | change in Shp1-Src complex formation (Shp1 and Src [4]; NIH3T3 over-expressing Shp1 S118A/R138E/S140A): no change | increase of Shp1-Src interaction compared with the control (Shp1 and Src [4]; NIH3T3 over-expressing Shp1 WT): about 1.6 fold | FRET efficiency in hot spots (Shp1 and Src [5]; lamellar regions): over 20% | average FRET efficiency (Shp1 and Src [5]; over the cells): 9% | increase of wound closure compared to the control (NIH3T3 cells; 50 μM, 6 h after scratching): 65% | wound closure (NIH3T3 cells; 50 μM, at 30 h): almost complete | rescue of EGF effect in cells treated with cPLA2α inhibitor (NIH3T3 cells; EGF 10 ng/ml, cPLA2α inhibitor, 50 μM GroPIns4P): could be rescued
